ChEMBL document CHEMBL6096696, “Structure-Activity Relationship Studies of an Autophagy Inhibitor That Targets the ATG14L-Beclin1 Protein-Protein Interaction Reveal Modifications That Improve Potency and Solubility and Maintain Selectivity” (J Med Chem, 2025)
In brackets after ≈: the same amount, converted by molar mass. Activity calls are given as the source filed them. The rule behind the calls is not given here.

Assays:
[1] = Kinetic aqueous solubility of compound in PBS at pH 7.4 by absorbance based analysis; type: physicochemical; details: read-out: Kinetic_solubility
HEK293T [2] = assay: Inhibition of C-terminal Nano-luc tagged ATG14L/C-terminal Halo-tagged Beclin 1 (unknown origin) PPI tranfected with HEK293T cells using […] at 100 uM incubated for 24 hrs by […] assay relative to control; type: cell-based; details: Homo sapiens, values are per cent of control
[3] = Selectivity ratio of inhibition of C-terminal Nano-luc tagged UVRAG/C-terminal Halo-tagged Beclin 1 (unknown origin) PPI tranfected with HEK293T cells to inhibition of C-terminal Nano-luc tagged ATG14L/C-terminal Halo-tagged Beclin 1 (unknown origin) PPI tranfected with HEK293T cells
HEK293T [4] = assay: Inhibition of C-terminal Nano-luc tagged UVRAG/C-terminal Halo-tagged Beclin 1 (unknown origin) PPI tranfected with HEK293T cells using […] at 100 uM incubated for 24 hrs by […] assay relative to control; type: cell-based; details: Homo sapiens, values are per cent of control
HeLa [5] = assay: Cytotoxicity against human HeLa cells expressing eGFP-LC3 at 100 uM; type: functional, cell-based
HeLa [6] = assay: Inhibition of autophagy in human HeLa cells expressing eGFP-LC3 at 50 uM preincubated for 20 hrs followed by chloroquine addition and measured after 4 hrs by Hoechst 33342 staining based automated fluorescence microscopy analysis; type: functional, cell-based; details: time 24.0 hrs
[7] = Inhibition of C-terminal Nano-luc tagged ATG14L/C-terminal Halo-tagged Beclin 1 (unknown origin) PPI tranfected with HEK293T cells using […] incubated for 24 hrs by […] assay; type: cell-based, Homo sapiens
A549 = assay: Inhibition of autophagy in human A549 cells assessed as increase in fluorescence at 100 uM preincubated with DQ-BSA for 1 hr followed by compound addition and measured after 4 hrs by Hoechst 33342 staining based automated fluorescence microscopy analysis; type: functional, cell-based

SMILES	solubility kinetic [1]	residual binding, % of control (HEK293T [2])	Selectivity ratio [3]	residual binding, % of control (HEK293T [4])	Activity (HeLa [5])	inhibition (HeLa [6])	IC50 [7]	inhibition (A549)
O=C1COc2ccc(-c3ccccc3C(F)(F)F)cc2N1Cc1noc(C2CCC2)n1	> 100 µM	77.4%	1.27	98%	Active; Compound Showed Less Cytotoxicity			
O=C1COc2ccc(-c3ccc(Cl)cc3Cl)cc2N1Cc1noc(C2CCC2)n1	> 100 µM	89.7%	1.17	105%	Active	inactive		
Cc1c(Cl)cccc1-c1ccc2c(c1)N(Cc1noc(C3CCC3)n1)C(=O)CO2	> 100 µM	79.7%	1.5	120%	Active; Compound Showed Less Cytotoxicity			
CCCN1C(=O)COc2ccc(-c3ccccc3O)cc21	> 100 µM	82.5%	1.26	104%	Active			
O=C1COc2ccc(-c3cccc(Cl)c3)cc2N1Cc1noc(C2CCC2)n1	> 100 µM	85.1%	1.32	116%	Active	inactive		
Cc1cccc(NS(=O)(=O)c2ccc3c(c2)N(Cc2noc(C4CCC4)n2)C(=O)CO3)c1C	50 µM (≈ 23.4 µg/mL)	60.6%					33.9 µM	
CCCN1C(=O)COc2ccc(-c3ccccc3OC)cc21	> 100 µM	79.5%	1.26	100%	Active			
CCCN1C(=O)COc2ccc(-c3ccccc3C)cc21	> 100 µM	65%	1.3	84.6%	Active		42.4 µM	Active
CCCN1C(=O)COc2ccc(-c3ccc(F)cc3F)cc21	> 100 µM	63.8%	1.32	84.2%	Active			
O=C1COc2ccc(-c3cccc(Cl)c3Cl)cc2N1Cc1noc(C2CCC2)n1	> 100 µM	86.8%	1.17	101%	Active; Compound Showed Less Cytotoxicity			
CCCN1C(=O)COc2ccc(-c3cccc(C)c3)cc21	> 100 µM	57.3%	1.59	91.5%	Active		42 µM	Active
CCCN1C(=O)COc2ccc(-c3cccc(OC(F)(F)F)c3)cc21	> 100 µM	75.3%	1.22	92.4%	Active		24.3 µM	Active
CC(C)c1ccccc1-c1ccc2c(c1)N(Cc1noc(C3CCC3)n1)C(=O)CO2	> 100 µM	71.6%	1.29	92.9%	Active; Compound Showed Less Cytotoxicity			
CCCN1C(=O)COc2ccc(Nc3ccccc3)cc21	> 100 µM	75.8%	1.54	116%				
O=C1COc2ccc(Nc3ccccc3Cl)cc2N1Cc1noc(C2CCC2)n1	> 100 µM	93.6%	1.11	104%				
Cc1ccccc1-c1ccc2c(c1)N(Cc1noc(C3CCC3)n1)C(=O)CO2	> 100 µM	109%	1.01	110%				
CCCN1C(=O)COc2ccc(-c3ccccc3)cc21	> 100 µM	63.2%	1.51	95.7%	Active		56.6 µM	Active
CCCN1C(=O)COc2ccc(-c3ccncc3)cc21	> 100 µM	106%	1.03	108%	Active			
Cc1cccc(-c2ccc3c(c2)N(Cc2noc(C4CCC4)n2)C(=O)CO3)c1Cl	> 100 µM	80.5%	1.45	117%	Active; Compound Showed Less Cytotoxicity			
O=C1COc2ccc(-c3ccccc3Cl)cc2N1Cc1noc(C2CCC2)n1	> 100 µM	89.9%	1.17	106%	Active; Compound Showed Less Cytotoxicity			
O=C1COc2ccc(Nc3cccc(Cl)c3Cl)cc2N1Cc1noc(C2CCC2)n1	25 µM (≈ 11.1 µg/mL)	86.2%	1.25	108%				
O=C1COc2ccc(-c3cccc(F)c3F)cc2N1Cc1noc(C2CCC2)n1	> 100 µM	85.1%	1.11	94.8%				
CCCN1C(=O)COc2ccc(-c3ccc(Cl)cc3Cl)cc21	> 100 µM	65.8%	1.25	82.6%	Active		28.8 µM	Active
O=C1COc2ccc(Nc3ccccc3F)cc2N1Cc1noc(C2CCC2)n1	> 100 µM	82%	1.23	101%				
Cc1cccc(-c2ccc3c(c2)N(Cc2noc(C4CCC4)n2)C(=O)CO3)c1C	> 100 µM	73.1%	1.3	95.3%	Active; Compound Showed Less Cytotoxicity	Active	12.5 µM	
O=C1COc2ccc(Nc3ccc(Cl)cc3Cl)cc2N1Cc1noc(C2CCC2)n1	50 µM (≈ 22.3 µg/mL)	79.1%	1.29	102%				
CC(C)c1cccc(Nc2ccc3c(c2)N(Cc2noc(C4CCC4)n2)C(=O)CO3)c1	> 100 µM	88.7%	1.18	105%				
O=C1COc2ccc(-c3ccccc3O)cc2N1Cc1noc(C2CCC2)n1	> 100 µM	94.9%	1.15	109%				
CCCN1C(=O)COc2ccc(Nc3cccc(Br)c3)cc21	50 µM (≈ 18.1 µg/mL)	101%	1.14	116%				
